Data as given in patent US12006294B2, “Therapeutic compounds” (REGENTS OF THE UNIVERSITY OF MINNESOTA, priority 2017, dated 2024).
“Also recorded” adds a separate entry of the source. Like-named read-outs stand apart in the source and are kept apart here.

Columns and labels:
[1] = test system: mice; assay: Tail flick assay of drug combinations (morphine or acetaminophen + GA and/or analogs); settings: acetaminophen:BC1-45-1 ratios 500:1 to 1000:1; acetate
[2] = test system: mice; assay: Acetaminophen hepatotoxicity (ALT, TBARS, survival); settings: for elevated ALT levels after acetaminophen overdose: delayed administration post APAP administration; for hepatotoxicity of acetaminophen (ALT levels): pretreatment (30 min) before acetaminophen
[3] = test system: CAD5 cells; assay type: cell-based
[4] = test system: Hela Cells; assay: Cellular ER stress model (tunicamycin, WST-8 cell viability); settings: for AntiERStress (% Cell Survival): HeLa cells, tunicamycin 48 hours, WST-8; for viability at 2.5 µM: Homo sapiens, HeLa, 48 h
[5] = test system: C57BL/6J mice; assay: MOG-induced experimental autoimmune encephalomyelitis (EAE); assay type: in vivo; settings: daily treatment starting on PID 10, preliminary results, FIG. 2

SMILES	1/Elispot [3]	AntiPrion (Number of Cells × 10^4) [3]	EliSpot (Spots/10000 Cells) [3] [Spots/10000 Cells]	Elispot (vs PC) [3]	AntiERStress (% Cell Survival) [4] [% Cell Survival]	further results
N=C(N)N/N=C/c1c(Cl)cccc1Cl [BC1-45-1, guanabenz, acetate]	–	–	–	–	–	analgesic synergy with acetaminophen in tail flick assay [1]: exhibited synergy in the analgesic activity; also recorded: provided synergy at all the time points tested; survival rate ([2]; all treatment groups (pretreatment and delayed 0.5-8 h post acetaminophen)): 100%; elevated ALT levels after acetaminophen overdose ([2]; acetate): reduces elevated levels of ALT; also recorded: limited the hepatotoxicity of acetaminophen; hepatotoxicity of acetaminophen (ALT levels) ([2]; acetate): can limit the hepatotoxicity of acetaminophen; also recorded: limited the hepatotoxicity of acetaminophen
N=C(N)N/N=C\c1c(Cl)cccc1Cl [BC1-55-1, (Z)-2-(2,6-dichlorobenzylidene)hydrazinecarboximidamide acetate]	0.59	3 × 10^4	2200	1.69	64.33	viability at 2.5 µM ([4]; read-out: % Cell Survival Cmpd(2.5 μM) + Tuni, Hela cells, compound 2.5 μM + tunicamycin, WST-8 viability 48 hours after tunicamycin treatment): 22.1%; viability at 2.5 µM ([4]; read-out: Compounds ERS (vs Tn), ERS activity vs Tuni = % cell survival (compound)/% cell survival (tunicamycin), compound 2.5 μM): 96%; lipid peroxidation products (TBARS assay) ([2]; acetaminophen overdose, FIG. 7, acetate): can reduce the lipid peroxidation products; also recorded: limited the elevated lipid peroxidation byproducts; survival rate ([2]; delayed administration post APAP): 100%; elevated ALT levels after acetaminophen overdose ([2]; acetate): reduces elevated levels of ALT; survival rate ([2]; pretreated animals, acetaminophen overdose): 100%; hepatotoxicity of acetaminophen (ALT levels) ([2]; acetate): can limit the hepatotoxicity of acetaminophen; also recorded: limited the hepatotoxicity of acetaminophen
N=C(N)N/N=C/c1c(I)cccc1I [BC2-55-2, (E)-2-(2,6-diiodobenzylidene)hydrazinecarboximidamide]	1.00	4 × 10^4	1300	1.00	70.69	–
N=C(N)N/N=C/c1c(O)cccc1Cl [BC2-59-1, (E)-2-(2-chloro-6-hydroxybenzylidene)hydrazinecarboximidamide acetate]	0.93	15 × 10^4	1400	1.08	104.6895	–
N=C(N)N/N=C/c1c(N)cccc1Cl [BC2-61-1, (E)-2-(2-amino-6-chlorobenzylidene)hydrazinecarboximidamide]	0.93	10 × 10^4	1400	1.08	86.56	–
N=C(N)N/N=C/c1ccccc1N [BC2-61-2, (E)-2-(2-aminobenzylidene)hydrazinecarboximidamide]	1.63	50 × 10^4	800	0.62	58.21	–
CC(=O)N[C@@H](CS)C(=O)O [N-acetyl cysteine]	–	–	–	–	–	elevated ALT levels after acetaminophen overdose [2]: less effective in limiting elevated ALT levels; hepatotoxicity of acetaminophen (ALT levels) [2]: less effective in limiting the hepatotoxicity of acetaminophen; animals died before completion of the study ([2]; pretreatment, acetaminophen overdose): Twenty-five; animals died before completion of the study ([2]; treated four hours after acetaminophen overdose): Eighty-eight
NC(N)=N/N=C/c1ccccc1Cl [Sephin 1, reference compound]	1.63	32 × 10^4	800	0.62	87.19	EAE disease severity (clinical severity score) [5]: markedly attended the EAE disease severity; EAE disease severity (clinical severity score) ([5]; listed as sephin 1): attends the EAE disease severity; ERS (vs Tn) ([4]; % cell survival (compound)/% cell survival (tunicamycin)): 1.80
